Experimental data taken from paper PMC9555310, “Novel inhibitors and activity-based probes targeting serine proteases” (Frontiers in Chemistry, 2022).
Where “and” joins values, the source holds several entries; their conditions need not be identical. Equal entries are not always repeated. Where two headings read alike, the source gives them in different places. One block for each molecule: values may come before it.

What was measured:
plasmin [1] = target: T1, plasmin (Homo sapiens, UniProt P00747); assay: Irreversible inhibition kinetics of plasmin (fluorogenic substrate progress curves); type: biochemical; conditions: PBS pH 7.4, 37°C, mean ± SD (n=2)
T1 construct: purchased Sigma-Aldrich (supplement); R&D Systems; host or cells: human plasma
Description: A range of inhibitor concentrations were prepared from a 10 mM stock solution of the test compounds (NAP533, NAP559, NAP800, NAP830, NAP849, and NAP962) in N, N-dimethylformamide (DMF). Recombinant protease activities were assayed using the cognate fluorogenic substrates as follows: trypsin (Z-Gly-Gly-Arg-NHMec), thrombin (Boc-Val-Pro-Arg-NHMec), plasmin (Boc-Val-Leu-Lys-NHMec), human neutrophil elastase (MeO-Succinyl-Ala-Ala-Pro-Val-NHMec), and chymotrypsin (Succinyl-Ala-Ala-Pro-Phe-NHMec). Each substrate was used at a final concentration of 50 μM, in the appropriate buffer for each protease. All inhibition assays were performed in microtiter plates maintained at 37°C in a final volume of 100 μL. The reaction was initiated by the addition of each protease (approx. 0.01 μg/well) and the rate of substrate hydrolysis was recorded continuously at 37°C, over a 60 min period, by measuring the rate of increase in fluorescence (at λex 360 nm, λem 480 nm) using a FLUOstar Optima microplate reader (BMG Labtech).
The resultant inhibition progress curves obtained for each inhibitor were analyzed by the kinetic models developed by [Tian and Tsou (1982)] and [Walker and Elmore (1984)], for irreversible inhibitors, with curve fitting being achieved using GraFit (Erithacus Software), as described previously ([Ferguson et al., 2016]).
FIGURE 4 Progress curves for (A), chymotrypsin-catalysed hydrolysis of Succinyl-Ala-Ala-Pro-Phe-NHMec, in the presence of varying concentrations of NAP849. (B), NE-catalysed hydrolysis of MeO-succinyl-Ala-Ala-Pro-Val-NHMec, in the presence of varying concentrations of NAP800. (C) Trypsin-catalysed of Z-Gly-Gly-Arg-NHMec, in the presence of NAP830. (D) Plasmin-catalysed hydrolysis of Boc-Val-Leu-Lys-NHMec, in the presence of varying concentrations of NAP962. Assays were carried out in PBS, pH 7.4, at 37°C, in the presence of a range of inhibitor concentrations (0.25–50 μM) and a fixed concentration (50 μM) of the appropriate substrate for each protease.
The “product progress” curves for substrate hydrolysis in the presence of an inhibitor (Figure 4) are indicative of the action of irreversible inhibitors operating through the kinetic scheme illustrated in Figure 6. In this scheme, the formation of the reversible enzyme–inhibitor complex (EI) is zcharacterized by the inhibitor constant K i. This is converted into the covalent/irreversible complex (E-I) characterized by a first-order rate constant k 3. The overall second-order rate constant for the inactivation of E by I is given by the ratio k 3/K i ([Walker and Elmore, 1984]; [Tsou, 1988]).
Fluorogenic enzyme assays were carried out on a FLUOstar OPTIMA spectro-fluorimeter (BMG Labtech) with analysis performed on MARS Data Analysis Software (BMG Labtech). Black 96-well microtitre plates were supplied by Thermo Scientific. Trypsin from porcine pancreas, plasmin from human plasma and chymotrypsin from bovine pancreas were obtained from Sigma-Aldrich. Thrombin and Cathepsin B were supplied by R and D Systems. Human Neutrophil Elastase was supplied by Calbiochem. Fluorogenic substrates Z-Gly-Gly-Arg-NHMec, Succinyl-Ala-Ala-Pro-Phe-NHMec and MeO-Succinyl-Ala-Ala-Pro-Val-NHMec were supplied by Sigma-Aldrich. Boc-Val-Pro-Arg-NHMec was obtained from R and D Systems and Boc-Val-Leu-Lys-NHMec was supplied by PeptaNova. Phosphate Buffered Saline tablets were acquired from Sigma- Aldrich.
Protease inactivation by each of the compounds under study was evaluated using a fluorogenic enzyme assays. Protease-substrate combinations used as detailed in Section 2. Inhibitors were made up as 10 mM stock solutions in either DMF or DMSO, then diluted with PBS (pH 7.4) to give appropriate working concentrations. A final volume of 100 μL was used per well. Substrate (50 μM final concentration) was added to a black 96-well microtitre plate (Thermo Scientific), in duplicate, followed by addition of inhibitor, in such a manner to give the required final concentration. […]

chymotrypsin [2] = target: T2, chymotrypsin (Bos taurus, UniProt P00766); assay: Off-target study, residual activity after 2 min pre-incubation: chymotrypsin; type: biochemical, bovine; conditions: highest concentration (50 μM); 2 min incubation, PBS pH 7.4, 37°C
T2 construct: purchased Sigma-Aldrich (supplement); Calbiochem; host or cells: bovine pancreas
Description: (§1) FIGURE 5 Results of “off-target“ studies. NAP849 (A), NAP800 (B) and NAP830 (C) were tested against trypsin, chymotrypsin, and NE. Samples (approx. 0.01 μg) of each protease were incubated with the indicated concentrations of test compound for 2 min, in PBS, pH 7.4, at 37°C. (D) NAP858, NAP962 and NAP849 were tested against cathepsin B at the indicated concentrations in 0.1 M MES, pH 6.1, containing 1 mM EDTA, for 2 min, at 37°C. Aliquots (approx. 10 μL) of each incubation sample were then added to a fresh sample (990 μL) of PBS for the serine proteases and MES for cathepsin B, containing the appropriate substrate for each protease, to measure their residual activity. Controls incubations were performed in the absence of test compound, but in the presence of an appropriate volume of DMF vehicle used to prepare stock solutions of each inhibitor under study.
(§2) Two elements were investigated regarding possible “off-target” effects–determining the extent of cross-reactivity of each of the new putative ABPs between the various serine protease family members and assessing their collateral inhibitory action against another mechanistic class–the cysteine proteases, using cathepsin B (CTSB) as an exemplar.
(§3) For assays requiring a pre-incubation step enzyme and inhibitor in assay buffer were incubated together, at 37 °C, for 2 min, with gentle agitation. The reaction mixture was then aliquoted (50 μL) in duplicate on a black 96-well microtitre plate followed by addition of substrate to make a final concentration of 50 μM in a total volume of 100 μL. The fluorescence production was then measured as described for the previous procedure.
(§4) Figure ST1. Results of “off-target” studies. NAP559 and NAP533 were tested against chymotrypsin, and NE. Samples (approx. 0.01 mg) of each protease were incubated with the indicated concentrations of test compound for 2 min, in PBS, pH 7.4, at 37 °C. Aliquots (approx. 10 µL) of each incubation sample were then added to a fresh sample (990 µL) of PBS containing the appropriate substrate for each protease, to measure their residual activity. Controls incubations were performed in the absence of test compound, but in the presence of an appropriate volume of DMF vehicle used to prepare stock solutions of each inhibitor under study.

neutrophil elastase (NE) = target: T3, neutrophil elastase (NE) (Homo sapiens, UniProt P08246); assay: Off-target study, residual activity after 2 min pre-incubation: NE; type: biochemical; conditions: highest concentration (50 μM); 2 min incubation, PBS pH 7.4, 37°C
T3 construct: purchased Calbiochem
T3 sequence (P08246 30-267): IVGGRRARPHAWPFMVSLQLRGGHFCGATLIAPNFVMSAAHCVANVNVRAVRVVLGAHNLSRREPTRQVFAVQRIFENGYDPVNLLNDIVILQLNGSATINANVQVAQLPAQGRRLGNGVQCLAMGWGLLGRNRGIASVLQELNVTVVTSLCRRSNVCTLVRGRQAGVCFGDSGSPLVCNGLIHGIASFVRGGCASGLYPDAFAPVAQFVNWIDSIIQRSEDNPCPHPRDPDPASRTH
Description: as §1, §2, §3, §4

trypsin = target: T4, trypsin (Sus scrofa, UniProt P00761); conditions: cited from earlier work
T4 construct: purchased Sigma-Aldrich; host or cells: porcine pancreas

thrombin = target: T5, thrombin (Homo sapiens, UniProt P00734); assay: Activity-based profiling of thrombin (SDS-PAGE, streptavidin-HRP western blot); type: binding; conditions: 30 min, 37°C; heavy (catalytic) chain; recapitulated in Figure 8B
T5 construct: apparent molecular mass of 31 kDa, corresponding to the heavy (catalytic) chain of the protease; purchased R&D Systems
Description: (§5) Samples of recombinant protease (trypsin, plasmin, thrombin, chymotrypsin, or HNE, as indicated in the relevant figure legends) were treated with each of the newly synthesized compounds at a concentration of 50 μM, for 30 min, at 37°C. A control sample (no ABP) was prepared by treating the recombinant protease with solvent vehicle (DMF) only, used to prepare the stock solution of each ABP. Samples were also pre-treated (±90°C for 30 min) before being incubated with each putative ABP. With trypsin and thrombin, further samples were prepared where Z-Arg^P-(OPh)2 or NAP559, respectively, was added 30 min prior to the addition of the ABP under examination. All treated samples were then denatured with SDS containing reducing treatment buffer (10 min at 95°C), followed by resolution by SDS-PAGE and subjected to Western blotting. Resolved proteins were then transferred onto the nitrocellulose membrane and labeled with streptavidin-HRP. The ABP–protease complex was then visualized following treatment with Luminata Forte HRP substrate.
(§6) FIGURE 8 Activity Based Profiling of Trypsin-like serine proteases. (A) trypsin was treated (±) with NAP830, for 30 min, at 37°C (± pretreatment with Z-Arg^P-(OPh)2). (B) thrombin (1 […]) was pre-treated with various concentrations of NAP559 (30 min, at 37°C) followed by treatment (±) with NAP858 for 30 min, at 37°C. (C) Plasmin was treated in turn with QUBTL1, NAP962 and NAP830, (± pre-heat inactivation at 95°C, for 10 min) for 30 min, at 37°C. […]
(§7) Following transfer, the extra protein binding sites on the membrane were blocked by addition of 3% (w/v) BSA in TBST (20 mM Tris, 137 mM NaCl, 1% (v/v) Tween 20, pH 7.6) and agitated gently at room temperature for 30 minutes. The biotin-labelled proteases were then detected by addition of Streptavidin-HRP (Vector Laboratories) in 3% (w/v) BSA in TBST at a concentration of 1:20000, for 1 hour at room temperature. […]

cathepsin B (CTSB) = target: T6, cathepsin B (CTSB) (Homo sapiens, UniProt P07858); assay: Off-target study, residual activity after 2 min pre-incubation: cathepsin B; type: biochemical; conditions: 25 and 50 μM, 0.1 M MES pH 6.1, 1 mM EDTA, 37°C
T6 construct: purchased R and D Systems
Description: as §1, §2, §3
Assays with Cathepsin B required a pre-activation step of the protease prior to use in the fluorogenic enzyme assays. Cathepsin B was diluted to 10 μg/ml in activation buffer (0.1 M MES, pH 6.1, containing 1 mM EDTA and 2 mM DTT) and left to stand at room temperature for 15 minutes. Activated Cathepsin B was then diluted (1:50 to give 10 ng/50 μl) with assay buffer (activation buffer minus the DTT) prior to use as described previously.

chymotrypsin [3] = target: T2, chymotrypsin; set-up: method as in Gilmore et al. (2009); conditions: ref Gilmore et al. (2009); cited from earlier work
plasmin [4] = target: T1, plasmin; set-up: method as in Martin and Walker (2017); conditions: mean ± SD (n=2), ref Martin and Walker (2017); cited from earlier work
plasmin [5] = target: T1, plasmin; assay: Activity-based profiling of plasmin (SDS-PAGE, streptavidin-HRP western blot); type: binding; conditions: 50 μM, 30 min, 37°C
Description: as §5, §6, §7

T4 sequence (P00761 9-231): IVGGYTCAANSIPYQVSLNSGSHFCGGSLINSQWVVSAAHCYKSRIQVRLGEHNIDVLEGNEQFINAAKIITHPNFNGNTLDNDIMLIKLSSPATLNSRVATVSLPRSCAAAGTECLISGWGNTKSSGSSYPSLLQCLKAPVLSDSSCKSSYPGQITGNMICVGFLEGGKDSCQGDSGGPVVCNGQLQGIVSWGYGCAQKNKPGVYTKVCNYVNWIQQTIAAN
T1 sequence (P00747 581-810 limits assumed): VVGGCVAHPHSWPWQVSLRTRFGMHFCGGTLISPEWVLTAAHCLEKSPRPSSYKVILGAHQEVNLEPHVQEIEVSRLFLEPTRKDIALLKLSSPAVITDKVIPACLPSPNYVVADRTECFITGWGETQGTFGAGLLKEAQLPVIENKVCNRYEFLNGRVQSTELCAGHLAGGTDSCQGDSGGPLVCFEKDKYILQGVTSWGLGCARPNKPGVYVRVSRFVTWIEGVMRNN
T1 sequence (P00747 97-580 partner limits assumed): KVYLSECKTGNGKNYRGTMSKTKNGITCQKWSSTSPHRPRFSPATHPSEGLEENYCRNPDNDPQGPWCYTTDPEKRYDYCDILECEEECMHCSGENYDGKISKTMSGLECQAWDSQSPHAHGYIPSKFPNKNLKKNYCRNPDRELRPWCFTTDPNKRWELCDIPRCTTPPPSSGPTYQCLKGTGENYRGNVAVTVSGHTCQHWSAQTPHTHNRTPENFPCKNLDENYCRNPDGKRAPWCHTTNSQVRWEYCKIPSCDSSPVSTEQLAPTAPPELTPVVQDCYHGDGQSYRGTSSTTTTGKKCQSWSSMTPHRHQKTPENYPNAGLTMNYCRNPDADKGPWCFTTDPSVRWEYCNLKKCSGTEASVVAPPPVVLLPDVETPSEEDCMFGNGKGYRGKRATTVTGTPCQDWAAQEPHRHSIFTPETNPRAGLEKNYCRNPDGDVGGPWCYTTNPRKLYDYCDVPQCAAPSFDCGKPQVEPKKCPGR

Ki (plasmin [1]; Boc-Val-Leu-Lys-NHMec 50 μM): 2200 nM
k 3 (plasmin [1]; first-order rate constant): 0.4 (± 0.04) min^−1
k 3 / K i (plasmin [1]; second-order rate constant of inactivation): 1.7 (± 0.3) × 10^5 M^−1 min^−1
inhibition of chymotrypsin (chymotrypsin [2]): < 5 % of control
inhibition of NE (neutrophil elastase (NE)): < 5 % of control
Molecule: CC(C)[C@H](NC(=O)CN(Cc1ccccc1)C(=O)CN(CCCCN)C(=O)ON1C(=O)CCC1=O)C(N)=O [NAP533, Succinimidoyl-CO-NLys-NPhe-Val-NH2]

Molecule: N=C(N)NCCCN(CC(=O)NCC(=O)NCC(=O)NCCCOCCOCCOCCCNC(=O)CCCCC1SCC2NC(=O)NC21)C(=O)ON1C(=O)CCC1=O (centres unmarked) [NAP858]
k 3 (trypsin; ref Ferguson et al. (2022)): 0.5 (+ 0.1) min^−1
k 3 / K i (trypsin; ref Ferguson et al. (2022)): 34300 M⁻¹ s⁻¹ and 35000 M⁻¹ s⁻¹
labelling of thrombin by ABP (western blot) (thrombin): detection of a band with an apparent molecular mass of 31 kDa
inhibitory activity against CTSB (cathepsin B (CTSB)): none of the three carbamates tested exhibited any inhibitory activity against CTSB

Molecule: O=C(CCCCC1SCC2NC(=O)NC21)NCCCOCCOCCOCCCNC(=O)CCC(=O)NC(Cc1ccccc1)P(=O)(Oc1ccccc1)Oc1ccccc1 (centres unmarked) [QUBCL1, biotin-PEG-succinyl-Phe^P-(OPh)2]
Ki (chymotrypsin [3]): 1080 nM
k 3 (chymotrypsin [3]): 0.119 min⁻¹
k 3 / K i (chymotrypsin [3]): 1850 M⁻¹ s⁻¹

Molecule: N=C(N)NCCCC(NC(=O)CCC(=O)NCCCOCCOCCOCCCNC(=O)CCCCC1SCC2NC(=O)NC21)P(=O)(Oc1ccccc1)Oc1ccccc1 (centres unmarked) [QUBTL1, biotin-PEG-succinyl-arginine diphenyl phosphonate]
Ki (plasmin [4]): 89 nM
k 3 (plasmin [4]): 0.3 (± 0.05) min^−1
k 3 / K i (plasmin [4]): 3.1 (± 0.2) × 10^6 M^−1 min^−1
labelling of plasmin by ABP (western blot) (plasmin [5]): failed to detect any plasmin band

Molecule: Biotin-PEG-Succinyl-Lys^P-(OPh)2 [QUBTL2]
k 3 / K i (trypsin; ref Martin and Walker (2017)): 18300 M⁻¹ s⁻¹
